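Where inhibition never reached the appropriate level, the endpoint shown equals the highest concentration tested. Otherwise, values were interpolated linearly from a five-concentration, 48-hour dose response in 96-well plates. The concentration for 50% growth inhibition is given as GI50. At the TGI there is no net growth.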
Tests used:
Assay in all cases: inhibition of tumour cell growth, NCI panel, 48 h
NCI-H460 lung = system: NCI-H460 lung
SW-620 colon = system: SW-620 colon
HOP-92 NSCLC = system: HOP-92 NSCLC
OVCAR-5 ovarian = system: OVCAR-5 ovarian
A549 NSCLC = system: A549 NSCLC
HOP-62 NSCLC = system: HOP-62 NSCLC
UO-31 renal = system: UO-31 renal
SNB-19 CNS = system: SNB-19 CNS
A498 renal = system: A498 renal
HT29 colon = system: HT29 colon

COc1ccc(Cn2c(N)c(S(=O)(=O)c3ccc(Cl)cc3)c3nc(C#N)c(C#N)nc32)cc1
GI50 (NCI-H460 lung): 2.94 µM
TGI (NCI-H460 lung): > 50 µM
GI50 (SW-620 colon): > 50 µM
TGI (SW-620 colon): > 50 µM
GI50 (HOP-92 NSCLC): 11100 nM
TGI (HOP-92 NSCLC): > 50 µM
GI50 (OVCAR-5 ovarian): 12.2 µM
TGI (OVCAR-5 ovarian): > 50 µM
GI50 (A549 NSCLC): 18.2 µM
TGI (A549 NSCLC): > 50 µM
GI50 (HOP-62 NSCLC): > 50 µM
TGI (HOP-62 NSCLC): > 50 µM
GI50 (UO-31 renal): 32.6 µM
TGI (UO-31 renal): > 50 µM
GI50 (SNB-19 CNS): 18 µM
TGI (SNB-19 CNS): > 50 µM

COC(=O)c1s/c(=N\C(=S)N(C)C)n(-c2ccc(Cl)cc2)c1C(=O)OC
TGI (NCI-H460 lung): > 100 µM
TGI (SW-620 colon): > 100 µM
TGI (OVCAR-5 ovarian): > 100 µM
TGI (A498 renal): > 100 µM
TGI (A549 NSCLC): > 100 µM
TGI (HOP-62 NSCLC): > 100 µM
TGI (HT29 colon): > 100 µM
TGI (UO-31 renal): > 100 µM
TGI (SNB-19 CNS): > 100 µM

CCc1ccc(/C=C/c2ccc(O)c3ncccc23)[n+](C)c1
GI50 (NCI-H460 lung): 0.507 µM
TGI (NCI-H460 lung): > 100 µM
GI50 (SW-620 colon): 4.47 µM
TGI (SW-620 colon): > 100 µM
GI50 (HOP-92 NSCLC): 29.3 nM
TGI (HOP-92 NSCLC): 3.54 µM
GI50 (OVCAR-5 ovarian): > 100 µM
TGI (OVCAR-5 ovarian): > 100 µM
GI50 (A498 renal): 1420 nM
TGI (A498 renal): > 63 µM
GI50 (A549 NSCLC): 0.0377 µM
TGI (A549 NSCLC): > 100 µM
TGI (HOP-62 NSCLC): > 100 µM
GI50 (HT29 colon): > 29.3 µM
TGI (HT29 colon): > 100 µM
GI50 (UO-31 renal): 7.4 µM
TGI (UO-31 renal): > 100 µM
GI50 (SNB-19 CNS): 11.5 µM
TGI (SNB-19 CNS): > 100 µM

Nc1c(C(=O)c2ccccc2)cnn1-c1ccc(F)cc1
GI50 (NCI-H460 lung): > 25 µM
TGI (NCI-H460 lung): > 25 µM
GI50 (SW-620 colon): > 25 µM
TGI (SW-620 colon): > 25 µM
GI50 (HOP-92 NSCLC): > 19300 nM
TGI (HOP-92 NSCLC): > 25 µM
GI50 (OVCAR-5 ovarian): > 25 µM
TGI (OVCAR-5 ovarian): > 25 µM
GI50 (A498 renal): > 25000 nM
TGI (A498 renal): > 25 µM
GI50 (A549 NSCLC): > 25 µM
TGI (A549 NSCLC): > 25 µM
GI50 (HOP-62 NSCLC): > 25 µM
TGI (HOP-62 NSCLC): > 25 µM
GI50 (HT29 colon): > 25 µM
TGI (HT29 colon): > 25 µM
GI50 (UO-31 renal): > 25 µM
TGI (UO-31 renal): > 25 µM
GI50 (SNB-19 CNS): > 25 µM
TGI (SNB-19 CNS): > 25 µM

CN(C)c1ncnc2c1ncn2CCn1cnc2c(N(C)C)ncnc21
TGI (NCI-H460 lung): > 100 µM
TGI (SW-620 colon): > 100 µM
TGI (HOP-92 NSCLC): > 100 µM
TGI (OVCAR-5 ovarian): > 100 µM
TGI (A498 renal): > 100 µM
TGI (A549 NSCLC): > 100 µM
TGI (HOP-62 NSCLC): > 100 µM
TGI (HT29 colon): > 100 µM
TGI (UO-31 renal): > 100 µM
TGI (SNB-19 CNS): > 100 µM

COc1cc(/C=C\c2cc(OC)c(OC)c(OC)c2)cc(N/C=C\C(=O)c2cc(OC)c(OC)c(OC)c2)c1OC
GI50 (NCI-H460 lung): 3.93 µM
TGI (NCI-H460 lung): > 100 µM
GI50 (SW-620 colon): 4.12 µM
TGI (SW-620 colon): > 100 µM
GI50 (HOP-92 NSCLC): 1140 nM
TGI (HOP-92 NSCLC): 6.56 µM
GI50 (OVCAR-5 ovarian): 3.64 µM
TGI (OVCAR-5 ovarian): > 100 µM
GI50 (A498 renal): 2400 nM
TGI (A498 renal): 7.89 µM
GI50 (A549 NSCLC): 5.14 µM
TGI (A549 NSCLC): > 100 µM
GI50 (HOP-62 NSCLC): 2.46 µM
TGI (HOP-62 NSCLC): > 100 µM
GI50 (HT29 colon): 3.21 µM
TGI (HT29 colon): 14.8 µM
GI50 (UO-31 renal): 2.63 µM
TGI (UO-31 renal): > 100 µM
GI50 (SNB-19 CNS): 4.49 µM
TGI (SNB-19 CNS): > 100 µM

O=C(Nc1cc(C(F)(F)F)ccc1Cl)c1cccc(NC2=C(Cl)C(=O)N(Cc3ccccc3)C2=O)c1
GI50 (NCI-H460 lung): 38.2 µM
TGI (NCI-H460 lung): > 100 µM
GI50 (SW-620 colon): 52.7 µM
TGI (SW-620 colon): > 100 µM
GI50 (HOP-92 NSCLC): 19100 nM
TGI (HOP-92 NSCLC): > 100 µM
GI50 (A498 renal): 28500 nM
TGI (A498 renal): 92.9 µM
GI50 (A549 NSCLC): 72.8 µM
TGI (A549 NSCLC): > 100 µM
GI50 (HOP-62 NSCLC): > 100 µM
TGI (HOP-62 NSCLC): > 100 µM
GI50 (HT29 colon): 43.1 µM
TGI (HT29 colon): > 100 µM
GI50 (UO-31 renal): 0.7 µM
TGI (UO-31 renal): 58.2 µM
GI50 (SNB-19 CNS): > 100 µM
TGI (SNB-19 CNS): > 100 µM

O=[P@@]1(c2ccccc2)O[C@H](COCc2ccccc2)[C@@H](OCc2ccccc2)[C@H](OCc2ccccc2)[C@H]1NCc1ccccc1
GI50 (NCI-H460 lung): 2.59 µM
TGI (NCI-H460 lung): 7.11 µM
GI50 (SW-620 colon): 3.52 µM
TGI (SW-620 colon): > 100 µM
GI50 (OVCAR-5 ovarian): 3.51 µM
TGI (OVCAR-5 ovarian): > 100 µM
GI50 (A498 renal): 2390 nM
TGI (A498 renal): 8.99 µM
GI50 (A549 NSCLC): 3.04 µM
TGI (A549 NSCLC): > 100 µM
GI50 (HOP-62 NSCLC): 3.77 µM
TGI (HOP-62 NSCLC): > 100 µM
GI50 (HT29 colon): 3.21 µM
TGI (HT29 colon): > 100 µM
GI50 (SNB-19 CNS): 3.71 µM
TGI (SNB-19 CNS): > 100 µM

CCc1c(Cl)c(C)cc(O)c1Cl
TGI (NCI-H460 lung): > 100 µM
TGI (SW-620 colon): 47.9 µM
TGI (HOP-92 NSCLC): 92.3 µM
TGI (OVCAR-5 ovarian): > 100 µM
TGI (A498 renal): 54.7 µM
TGI (A549 NSCLC): > 100 µM
TGI (HOP-62 NSCLC): > 100 µM
TGI (HT29 colon): 77.6 µM
TGI (UO-31 renal): 56.8 µM
TGI (SNB-19 CNS): > 100 µM

CC(C)=CCc1cc2c(cc1O)OC[C@H]1c3cc4c(cc3O[C@@H]21)OCO4
TGI (NCI-H460 lung): 44.5 µM
TGI (SW-620 colon): > 100 µM
TGI (HOP-92 NSCLC): > 100 µM
TGI (OVCAR-5 ovarian): > 100 µM
TGI (A549 NSCLC): > 100 µM
TGI (HOP-62 NSCLC): > 100 µM
TGI (HT29 colon): > 100 µM
TGI (UO-31 renal): > 100 µM
TGI (SNB-19 CNS): > 100 µM

Oc1ccc2ccccc2c1N=Nc1ccc(Br)cc1
TGI (SW-620 colon): > 100 µM
TGI (HOP-92 NSCLC): > 100 µM
TGI (OVCAR-5 ovarian): > 100 µM
TGI (A549 NSCLC): > 100 µM
TGI (HOP-62 NSCLC): > 100 µM
TGI (HT29 colon): > 100 µM
TGI (UO-31 renal): > 100 µM
TGI (SNB-19 CNS): > 100 µM

Oc1ccc(Nc2c3ccccc3nc3occ(Cl)c23)cc1
GI50 (NCI-H460 lung): 3.68 µM
TGI (NCI-H460 lung): 28.9 µM
GI50 (SW-620 colon): 4.71 µM
TGI (SW-620 colon): > 100 µM
GI50 (HOP-92 NSCLC): 90.5 nM
TGI (HOP-92 NSCLC): 8.96 µM
GI50 (OVCAR-5 ovarian): 19 µM
TGI (OVCAR-5 ovarian): > 100 µM
GI50 (A549 NSCLC): 3.3 µM
TGI (A549 NSCLC): 32.2 µM
GI50 (HOP-62 NSCLC): 4.37 µM
TGI (HOP-62 NSCLC): 36.2 µM
GI50 (HT29 colon): 4.49 µM
TGI (HT29 colon): > 100 µM
GI50 (UO-31 renal): 5.61 µM
TGI (UO-31 renal): 24.4 µM
GI50 (SNB-19 CNS): 4.62 µM
TGI (SNB-19 CNS): > 100 µM

Clc1nc(Cl)nc(Nc2cccc3ccccc23)n1
GI50 (NCI-H460 lung): > 100 µM
TGI (NCI-H460 lung): > 100 µM
GI50 (SW-620 colon): 94.7 µM
TGI (SW-620 colon): > 100 µM
GI50 (OVCAR-5 ovarian): > 100 µM
TGI (OVCAR-5 ovarian): > 100 µM
GI50 (A498 renal): > 100000 nM
TGI (A498 renal): > 100 µM
GI50 (A549 NSCLC): > 100 µM
TGI (A549 NSCLC): > 100 µM
GI50 (HOP-62 NSCLC): > 100 µM
TGI (HOP-62 NSCLC): > 100 µM
GI50 (HT29 colon): > 100 µM
TGI (HT29 colon): > 100 µM
GI50 (UO-31 renal): 26.5 µM
TGI (UO-31 renal): > 100 µM
GI50 (SNB-19 CNS): > 100 µM
TGI (SNB-19 CNS): > 100 µM

CC(C(=O)O)c1cccc(Oc2ccccc2)c1 (stereo not given)
GI50 (NCI-H460 lung): > 100 µM
TGI (NCI-H460 lung): > 100 µM
GI50 (SW-620 colon): > 100 µM
TGI (SW-620 colon): > 100 µM
GI50 (OVCAR-5 ovarian): > 100 µM
TGI (OVCAR-5 ovarian): > 100 µM
GI50 (A498 renal): > 100000 nM
TGI (A498 renal): > 100 µM
GI50 (A549 NSCLC): > 100 µM
TGI (A549 NSCLC): > 100 µM
GI50 (HOP-62 NSCLC): > 100 µM
TGI (HOP-62 NSCLC): > 100 µM
GI50 (HT29 colon): > 100 µM
TGI (HT29 colon): > 100 µM
GI50 (UO-31 renal): > 100 µM
TGI (UO-31 renal): > 100 µM
GI50 (SNB-19 CNS): > 100 µM
TGI (SNB-19 CNS): > 100 µM

COc1cccc2c1C(=O)c1c(O)c3c(c(O)c1C2=O)C[C@@](O)(/C(C)=N/NC(=O)c1ccc(Cl)cc1)C[C@@H]3OC1CC(N)C(O)C(C)O1 (stereo not given in full)
GI50 (HOP-92 NSCLC): 192 nM
TGI (HOP-92 NSCLC): 0.751 µM
GI50 (OVCAR-5 ovarian): 0.379 µM
TGI (OVCAR-5 ovarian): 3.81 µM
GI50 (A498 renal): 129 nM
TGI (A498 renal): 0.625 µM
GI50 (A549 NSCLC): 0.124 µM
TGI (A549 NSCLC): 1.85 µM
GI50 (HOP-62 NSCLC): 0.215 µM
TGI (HOP-62 NSCLC): 1.94 µM
GI50 (HT29 colon): 0.232 µM
TGI (HT29 colon): 1.41 µM
GI50 (UO-31 renal): 0.488 µM
TGI (UO-31 renal): 4.55 µM
GI50 (SNB-19 CNS): 0.162 µM
TGI (SNB-19 CNS): 1.9 µM

— PubChem BioAssay (NCI)
